Test results from publication PMC8258697 (The Journal of Biological Chemistry, 2021).

How the values were obtained:
RXRα total mutant LBD = target: T1, RXRα total mutant LBD (Homo sapiens, UniProt P19793, E453R/F450Y/K284E/V280T/V298T); test: Isothermal titration calorimetry, RXRα total mutant LBD; assay type: binding; details: 25°C
T1 construct: MBP-Asn10-His8-TEV site (N, cleaved yes); made in house; host or cells: E. coli T7 express (co-expressed with GroEL/ES)
T1 sequence (P19793 223-462 V280T/K284E/V298T/F450Y/E453R): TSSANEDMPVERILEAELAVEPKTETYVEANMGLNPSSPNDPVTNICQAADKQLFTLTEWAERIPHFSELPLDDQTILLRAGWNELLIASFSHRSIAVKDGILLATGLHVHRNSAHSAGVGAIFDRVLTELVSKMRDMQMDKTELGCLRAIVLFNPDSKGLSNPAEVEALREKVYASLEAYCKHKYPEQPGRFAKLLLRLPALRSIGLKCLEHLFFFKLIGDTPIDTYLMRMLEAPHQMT
Description: SI method 1: LBD pulldown
In order to verify proper dimer formation capability of the majority of the protein preparation a pulldown experiment was performed. Therefore, small centrifugal filter columns (nylon membrane with […] pore size; VWR) were loaded with 20 µl of Pierce® high capacity streptavidin agarose beads (Thermo Scientific) equilibrated in HTRF buffer [25 mM HEPES pH 7.5, 150 mM KF, 10% (w/v) glycerol, 5 mM DTT (fresh)], then 20 µl of a mixture of biotin coupled RXRα LBD (4 µg) and the respective PPAR LBD (1.4 µg) was applied. After incubation for 10 min at room temperature followed by centrifugation for 2 min and 900 x g the input mixture as well as the flowthrough was analyzed via SDS PAGE. Gels were scanned using an Li-Cor Odyssey imager (LI-COR® Biosciences GmbH, Germany). Missing bands in comparison to the input control were interpreted in two different ways. […]
The heats of dilution resulting from titrating one of the RXRα LBD proteins into the cell containing only buffer were recorded separately and subtracted from the raw ITC data obtained with compound. Data were analyzed using the NanoAnalyze software package (version 3.7.5). […] Free energy change (ΔG) was calculated using the equation […]
and from there the entropy (ΔS) was calculated from […]
µM SR11237. […] The heats of dilution resulting from titrating of protein into buffer were recorded separately and subtracted. […]

RXRα LBD mutant = target: T2, RXRα LBD mutant (Homo sapiens, UniProt P19793, E453R/F450Y/K284E/V280T/V298T); test: NCOR1 corepressor displacement HTRF assay on sGFP-RXRα mutant LBD; assay type: biochemical; details: 100 nM sGFP-RXRα mutant LBD, 12 nM NCOR1 ID2
T2 construct: His10-tag with TEV site (N, cleaved yes); made in house; host or cells: E. coli T7 express (co-expressed with GroEL/ES)
T2 sequence (P19793 226-462 V280T/K284E/V298T/F450Y/E453R): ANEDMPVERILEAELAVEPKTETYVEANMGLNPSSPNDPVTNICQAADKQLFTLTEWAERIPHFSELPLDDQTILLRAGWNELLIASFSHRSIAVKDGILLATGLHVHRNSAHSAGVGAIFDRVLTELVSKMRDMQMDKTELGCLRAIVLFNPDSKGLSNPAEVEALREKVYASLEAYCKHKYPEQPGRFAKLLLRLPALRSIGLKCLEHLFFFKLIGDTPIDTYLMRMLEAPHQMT

CC1(C)CCC(C)(C)c2cc(C3(c4ccc(C(=O)O)cc4)OCCO3)ccc21 [SR11237]
binding affinity (ITC) (RXRα total mutant LBD): comparable affinity | effect on NCOR1 corepressor binding (RXRα LBD mutant): Agonist dependent displacement of NCOR1
